According to article PMC10087775, “ProX from marine Synechococcus spp. show a sole preference for glycine‐betaine with differential affinity between ecotypes” (Environmental Microbiology, 2022):
Where two headings read alike, the source gives them in different places.

Experiments:
[1] = biological target: ChoX; set-up: method as in Oswald et al. ([2008]); conditions: ref Oswald et al. ([2008]); read-out: Affinity (K D); cited from earlier work
[2] = biological target: OpuAC; set-up: method as in Wolters et al. ([2010]); conditions: ref Wolters et al. ([2010]), read-out: Affinity (K D), cited from earlier work
[3] = biological target: TmoX; set-up: method as in Li et al. ([2015]); conditions: ref Li et al. ([2015]); read-out: Affinity (K D); cited from earlier work
[4] = biological target: T1, WH8102_ProX (Parasynechococcus marenigrum, UniProt Q7U4Z5); assay: Modified DSF (isothermal analysis, FoldAffinity) binding affinity of WH8102_ProX; set-up: species or system Synechococcus sp. WH8102; conditions: for Kd: read-out: Affinity (K D)
T1 sequence (Q7U4Z5 entry or part of it): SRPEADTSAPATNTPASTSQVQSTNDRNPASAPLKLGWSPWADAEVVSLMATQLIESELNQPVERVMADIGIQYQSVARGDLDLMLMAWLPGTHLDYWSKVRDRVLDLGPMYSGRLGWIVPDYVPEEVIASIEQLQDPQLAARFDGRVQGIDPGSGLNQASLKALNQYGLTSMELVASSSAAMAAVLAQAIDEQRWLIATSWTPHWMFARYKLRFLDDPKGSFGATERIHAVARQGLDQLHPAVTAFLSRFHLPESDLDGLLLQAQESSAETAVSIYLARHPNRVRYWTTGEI
Method: (§1) The DSF assay was modified to elucidate binding kinetics, following a published protocol specifically outlining this application, and validated using SBPs (Bai et al., [2019]). Briefly, a range of protein concentrations were tested (2–20 μM) to determine the optimal signal‐to‐noise ratio while requiring a low protein concentration (5 μM). Protein solutions were prepared in Buffer A at a concentration of 10 μM, with a 50× concentration of SYPRO Orange dye. Working stocks of ligands were prepared independently (in Buffer A) at the following concentrations: 0.4, 0.8, 1.6, 3.2, 6.4, 12.8, 25, 50, 100, 200, 2000 μM. ProX protein and ligands (10 μl each) were both delivered in triplicate into a 96‐well plate (final volume 20 μl). Plates were centrifuged in a benchtop plate spinner (1 min) to ensure sample homogeneity before recording fluorescence data across the thermal ramp as previously described.
(§2) Data were processed using two independent software packages: the provided Python package (Bai et al., [2019]) and the web‐based FoldAffinity tool (Niebling et al., [2021]) to ensure their consistency and determine affinity values. The final values reported were taken from FoldAffinity. Processed results were then plotted (GraphPad Prism) to generate publication‐quality figures of the processed data.
(§3) Purified ProX samples were subjected to binding kinetics determination using a modified DSF approach (Bai et al., [2019]; Niebling et al., [2021]). This approach was selected due to aberrant noise in calorimetric and tryptophan quenching experiments, attributed to possible dimer‐monomer interconversion co‐occurring with ligand‐binding events. […] This is related to the proportion of folded versus unfolded protein at a single temperature (isothermal analysis) using a selected temperature value (T sel ) slightly above the T M previously determined. Using the FoldAffinity tool (Niebling et al., [2021]), non‐linear regression and curve fitting of the processed thermal melt curves allowed the determination of ligand dissociation constants (K D ) for each protein and ligand partner.

[5] = biological target: ProX; set-up: method as in Schiefner, Breed, et al. ([2004]); conditions: ref Schiefner, Breed, et al. ([2004]); read-out: Affinity (K D); cited from earlier work
[6] = biological target: (UniProt A0A7G8ITR3); assay: Modified DSF (isothermal analysis, FoldAffinity) binding affinity of MITS9220_ProX; set-up: species or system Synechococcus sp. MITS9220; conditions: read-out: Affinity (K D)
Chain of (UniProt A0A7G8ITR3) (A0A7G8ITR3 40-334 limits assumed): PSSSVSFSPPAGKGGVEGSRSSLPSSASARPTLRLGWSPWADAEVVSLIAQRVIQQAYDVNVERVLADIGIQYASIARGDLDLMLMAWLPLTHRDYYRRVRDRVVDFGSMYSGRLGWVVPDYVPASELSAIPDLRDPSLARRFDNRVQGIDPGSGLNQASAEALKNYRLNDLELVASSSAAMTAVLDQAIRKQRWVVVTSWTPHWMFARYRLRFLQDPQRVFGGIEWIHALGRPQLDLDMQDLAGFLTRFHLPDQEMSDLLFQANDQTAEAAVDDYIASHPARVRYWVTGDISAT
Method: as §1, §2, §3

[7] = biological target: ProX; set-up: method as in Schiefner, Holtmann, et al. ([2004]); conditions: ref Schiefner, Holtmann, et al. ([2004]); read-out: Affinity (K D); cited from earlier work
[8] = tested on: MITS9220_ProX; assay: DSF thermal melt ligand screening of MITS9220_ProX; format: binding, Synechococcus sp. MITS9220; conditions: ligand tested independently by DSF
Method: (§4) Commercially available libraries of small molecules were tested as potential binding partners to ProX by recording differential scanning fluorimetry (DSF) responses over a thermal gradient (Neisen et al., [2007]). SYPRO Orange dye (Invitrogen) was used to monitor fold integrity in discrete protein mixtures by measuring fluorescence at 590 nm following excitation at 485 nm using a Stratagene MX3000P q‐PCR instrument. Compounds tested in 96‐well blocks incorporated common protein stabilizing ligands (HR2‐096 Silver Bullets, Hampton Research) and single‐molecule osmolyte sources (MicroPlate PM9, Biolog Inc). The concentration of these compounds following reaction set‐up was ~4 μM, and, therefore below the concentration required to effect complete saturation of the binding pocket. Each condition was tested in triplicate, with each plate containing a control well with no additive.
(§5) Thermal melt curves were analysed using the analysis template provided (Neisen et al., [2007]) and fitting of Boltzmann distribution (GraphPad Prism) for the determination of mid‐point thermal melt temperatures (Bai et al., [2019]). The only condition (Silver Bullets well #D8) leading to a significant increase (>3°C) in melting temperature was deconvoluted to identify the single component leading to such a change and repeated in triplicate.

[9] = biological target: T1, WH8102_ProX; assay: DSF thermal melt ligand screening of WH8102_ProX; format: binding, Synechococcus sp. WH8102; conditions: ligand tested independently by DSF
Method: as §4, §5

[10] = 0.50 M NaCl (Buffer A), Tsel 62°C

## CC(=O)OCC[N+](C)(C)C [Acetylcholine]
[1]
  Kd: 145 µM

## C[N+](C)(C)CC(O)CC(=O)[O-] (stereo not shown) [Carnitine]
[2]; dash with footnote b
  Kd: > 10000 µM

## C[N+](C)(C)CCO [Choline]
[1]
  Kd: 2.7 µM
[3]
  Kd: 3.8 µM

## O=C(O)[C@@H]1CCCN1 [Proline]
[2]; dash with footnote b
  Kd: > 10000 µM

## C[N+](C)(C)[O-] [Trimethylamine oxide]
[3]
  Kd: 1.6 µM

## C[N+](C)(C)CC(=O)[O-] [glycine betaine]
[4]; 0.25 M NaCl
  Kd: 13 ± 0.5 µM
[4]; 0.50 M NaCl (Buffer A)
  Kd: 12 µM
[4]; 1.5 M NaCl
  Kd: 13 ± 0.7 µM
[5]
  Kd: 1 µM
[6]; 0.25 M NaCl
  Kd: 1.1 µM
[6]; [10]
  Kd: 1.2 µM
[6]; 1.5 M NaCl
  Kd: 0.52 µM
[7]
  Kd: 0.06 µM

## C[N+]1(C)CCC[C@H]1C(=O)[O-] [proline betaine]
[2]
  Kd: 41 µM
[4]; 0.50 M NaCl (Buffer A)
  Kd: 250 ± 80 µM
[4]; modified DSF, Figure S3
  shifts in observed melting temperatures upon incremental addition of ligand: negligible shifts
[5]
  Kd: 5 µM
[8]
  TM shift: approximately 4 °C
[9]
  TM shift: < 2 °C
[6]; [10]
  Kd: > 1000 µM
[7]
  Kd: 0.05 µM
